Where two headings read alike, the source gives them in different places.
Key:
[1] = target: T1, Recombinant STAT6 protein (STAT6 (W123-T658)) (Homo sapiens, UniProt P42226); assay: STAT6 Fluorescence Polarization (FP) Assay; type: binding; settings: STAT6 (W123-T658) 250 nM, 45-minute incubation, read-out: STAT6 (FP assay IC50 class)
T1 construct: Recombinant STAT6 protein (STAT6 (W123-T658))
T1 sequence (P42226 123-658): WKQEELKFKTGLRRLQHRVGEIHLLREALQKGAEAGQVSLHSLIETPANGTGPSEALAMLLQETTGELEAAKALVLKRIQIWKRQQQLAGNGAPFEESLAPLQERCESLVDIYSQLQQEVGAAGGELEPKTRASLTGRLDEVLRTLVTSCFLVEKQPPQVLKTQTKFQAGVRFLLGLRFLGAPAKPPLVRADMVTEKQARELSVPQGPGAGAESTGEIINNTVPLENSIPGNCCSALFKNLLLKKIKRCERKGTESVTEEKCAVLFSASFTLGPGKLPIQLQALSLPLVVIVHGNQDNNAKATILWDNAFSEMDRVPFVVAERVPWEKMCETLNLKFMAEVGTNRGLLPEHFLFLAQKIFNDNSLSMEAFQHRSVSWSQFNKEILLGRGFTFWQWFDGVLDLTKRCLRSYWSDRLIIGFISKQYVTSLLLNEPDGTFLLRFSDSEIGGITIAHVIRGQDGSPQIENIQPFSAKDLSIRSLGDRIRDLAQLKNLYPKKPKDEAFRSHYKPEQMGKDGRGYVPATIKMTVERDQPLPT
How it was run: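 Probe displacement format: serially diluted compounds incubated 45 min at room temperature with 2 nM fluorescent phosphopeptide and 250 nM STAT6 (W123-T658) in pH 7.4 HEPES buffer, 1% DMSO final. Polarization signal plotted against log concentration, IC50 fitted by nonlinear regression.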

[2] = target: T2, Recombinant STAT3 protein (STAT3 (G127-I722)) (Homo sapiens, UniProt P40763); assay: STAT3 Fluorescence Polarization (FP) Assay; type: binding; settings: STAT3 (G127-I722) 25 nM, probe 5-FAM-GpYLPQTV-NH2 2 nM, 45-minute incubation; read-out: STAT3 (FP assay IC50 class)
T2 construct: Recombinant STAT3 protein (STAT3 (G127-I722))
How it was run: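 Displacement of a 2 nM 5-FAM-labelled pY peptide (GpYLPQTV) from 25 nM recombinant STAT3 (G127-I722) was monitored by fluorescence polarization. Incubation lasted 45 min at room temperature in pH 7.4 HEPES buffer containing 1% DMSO.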

[3] = probe 5-FAM-ApYKPFQDLI-NH2 2 nM

T2 sequence (P40763 127-722): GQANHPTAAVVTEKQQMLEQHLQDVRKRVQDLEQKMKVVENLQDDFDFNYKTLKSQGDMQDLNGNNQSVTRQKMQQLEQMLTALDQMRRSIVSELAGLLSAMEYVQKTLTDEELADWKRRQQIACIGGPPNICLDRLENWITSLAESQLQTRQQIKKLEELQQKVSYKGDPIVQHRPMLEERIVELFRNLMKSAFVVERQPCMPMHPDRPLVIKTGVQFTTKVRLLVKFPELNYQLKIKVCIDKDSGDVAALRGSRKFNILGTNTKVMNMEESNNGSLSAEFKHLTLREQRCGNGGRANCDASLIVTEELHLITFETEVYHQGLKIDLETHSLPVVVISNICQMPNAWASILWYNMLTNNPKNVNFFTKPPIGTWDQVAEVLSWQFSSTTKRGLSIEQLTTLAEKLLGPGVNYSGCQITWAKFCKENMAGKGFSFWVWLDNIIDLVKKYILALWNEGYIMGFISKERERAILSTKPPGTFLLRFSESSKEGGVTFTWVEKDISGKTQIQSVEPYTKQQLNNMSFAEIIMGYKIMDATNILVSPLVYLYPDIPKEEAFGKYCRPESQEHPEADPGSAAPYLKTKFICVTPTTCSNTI

Row | Molecule | IC50 ([1]; probe 5-FAM-Ap[…]-NH2 2 nM) [nM] | IC50 [2] [nM] | IC50 [1, 3] [nM]
1 | O=C(N[C@H]1CCC[C@H]2CC[C@@H](C(=O)NCc3ccc4[nH]cnc4c3)N2C1=O)c1cc2cc(C(F)(F)P(=O)(O)O)ccc2s1 [Compound 1115, ((2-(((3S,6S,9aS)-3-(((1H-benzo[d]imidazol-5-yl)methyl)carbamoyl)-5-oxooctahydro-1H-pyrrolo[1,2-a]azepin-6-yl)carbamoyl)benzo[b]thiophen-5-yl)difluoromethyl)phosphonic acid] | 300 to 3000 | < 100 | –
2 | Cc1nc2cc(CNC(=O)[C@@H]3CC[C@@H]4CCC[C@H](NC(=O)c5cc6cc(C(F)(F)P(=O)(O)O)ccc6s5)C(=O)N43)ccc2[nH]1 [Compound 1116, (difluoro(2-(((3S,6S,9aS)-3-(((2-methyl-1H-benzo[d]imidazol-5-yl)methyl)carbamoyl)-5-oxooctahydro-1H-pyrrolo[1,2-a]azepin-6-yl)carbamoyl)benzo[b]thiophen-5-yl)methyl)phosphonic acid] | 3000 to 30000 | 100 to 1000 | –
3 | O=C(N[C@H]1CCC[C@H]2CC[C@@H](C(=O)NCc3ccc4[nH]c(=O)[nH]c4c3)N2C1=O)c1cc2cc(C(F)(F)P(=O)(O)O)ccc2s1 [Compound 1117, (difluoro(2-(((3S,6S,9aS)-5-oxo-3-(((2-oxo-2,3-dihydro-1H-benzo[d]imidazol-5-yl)methyl)carbamoyl)octahydro-1H-pyrrolo[1,2-a]azepin-6-yl)carbamoyl)benzo[b]thiophen-5-yl)methyl)phosphonic acid] | 300 to 3000 | 100 to 1000 | –
4 | O=C(N[C@H]1CCC[C@H]2CC[C@@H](C(=O)NCc3cnc4[nH]cnc4c3)N2C1=O)c1cc2cc(C(F)(F)P(=O)(O)O)ccc2s1 [Compound 1118, ((2-(((3S,6S,9aS)-3-(((3H-imidazo[4,5-b]pyridin-6-yl)methyl)carbamoyl)-5-oxooctahydro-1H-pyrrolo[1,2-a]azepin-6-yl)carbamoyl)benzo[b]thiophen-5-yl)difluoromethyl)phosphonic acid] | 300 to 3000 | < 100 | –
5 | Cn1cnc2cc(CNC(=O)[C@@H]3CC[C@@H]4CCC[C@H](NC(=O)c5cc6cc(C(F)(F)P(=O)(O)O)ccc6s5)C(=O)N43)cnc21 [Compound 1119, (difluoro(2-(((3S,6S,9aS)-3-(((3-methyl-3H-imidazo[4,5-b]pyridin-6-yl)methyl)carbamoyl)-5-oxooctahydro-1H-pyrrolo[1,2-a]azepin-6-yl)carbamoyl)benzo[b]thiophen-5-yl)methyl)phosphonic acid] | 300 to 3000 | 100 to 1000 | –
6 | Cn1cnc2ncc(CNC(=O)[C@@H]3CC[C@@H]4CCC[C@H](NC(=O)c5cc6cc(C(F)(F)P(=O)(O)O)ccc6s5)C(=O)N43)cc21 [Compound 1120, (difluoro(2-(((3S,6S,9aS)-3-(((1-methyl-1H-imidazo[4,5-b]pyridin-6-yl)methyl)carbamoyl)-5-oxooctahydro-1H-pyrrolo[1,2-a]azepin-6-yl)carbamoyl)benzo[b]thiophen-5-yl)methyl)phosphonic acid] | 300 to 3000 | 100 to 1000 | –
7 | COCC(NC(=O)[C@@H]1CC[C@@H]2CCCC[C@H](NC(=O)c3cc4cc(C(F)(F)P(=O)(O)O)ccc4s3)C(=O)N21)c1c[nH]c2ncccc12 (stereo partly drawn) [Compound 1121, (difluoro(2-(((3S,6S,10aS)-3-((2-methoxy-1-(1H-pyrrolo[2,3-b]pyridin-3-yl)ethyl)carbamoyl)-5-oxodecahydropyrrolo[1,2-a]azocin-6-yl)carbamoyl)benzo[b]thiophen-5-yl)methyl)phosphonic acid] | 3000 to 30000 | 1000 to 10000 | –
8 | NC(=O)Cc1cc(-c2ccccc2)ccc1NC(=O)[C@@H]1CCC2CCC[C@H](NC(=O)c3cc4cc(C(F)(F)P(=O)(O)O)ccc4s3)C(=O)N21 (stereo partly drawn) [Compound 1122, ((2-(((35,6S)-3-((3-(2-amino-2-oxoethyl)-[1,1′-biphenyl]-4-yl)carbamoyl)-5-oxooctahydro-1H-pyrrolo[1,2-a]azepin-6-yl)carbamoyl)benzo[b]thiophen-5-yl)difluoromethyl)phosphonic acid] | 3000 to 30000 | 100 to 1000 | –
9 | Cn1cc(C2CN(C(=O)[C@@H]3CC[C@@H]4CCC[C@H](NC(=O)c5cc6cc(C(F)(F)P(=O)(O)O)ccc6s5)C(=O)N43)CCO2)cn1 (some centres unmarked) [Compound 1123] | 300 to 3000 | 1000 to 10000 | –
10 | O=C(N[C@H]1CCC[C@H]2CC[C@@H](C(=O)N3CCOC(c4cccnc4)C3)N2C1=O)c1cc2cc(C(F)(F)P(=O)(O)O)ccc2s1 (stereo partly drawn) [Compound 1124, (difluoro(2-(((3S,6S,9aS)-5-oxo-3-(2-(pyridin-3-yl)morpholine-4-carbonyl)octahydro-1H-pyrrolo[1,2-a]azepin-6-yl)carbamoyl)benzo[b]thiophen-5-yl)methyl)phosphonic acid] | ≤ 300 | 100 to 1000 | –
11 | O=C(N[C@H]1CCC[C@H]2CC[C@@H](C(=O)N3CCN(c4cccnc4)CC34CC4)N2C1=O)c1cc2cc(C(F)(F)P(=O)(O)O)ccc2s1 [Compound 1125, (difluoro(2-(((3S,6S,9aS)-5-oxo-3-(7-(pyridin-3-yl)-4,7-diazaspiro[2.5]octane-4-carbonyl)octahydro-1H-pyrrolo[1,2-a]azepin-6-yl)carbamoyl)benzo[b]thiophen-5-yl)methyl)phosphonic acid] | 300 to 3000 | < 100 | –
12 | Cn1cnnc1C1CN(C(=O)[C@@H]2CC[C@@H]3CCC[C@H](NC(=O)c4cc5cc(C(F)(F)P(=O)(O)O)ccc5s4)C(=O)N32)CCO1 (stereo partly drawn) [Compound 1126, (difluoro(2-(((3S,6S,9aS)-3-(2-(4-methyl-4H-1,2,4-triazol-3-yl)morpholine-4-carbonyl)-5-oxooctahydro-1H-pyrrolo[1,2-a]azepin-6-yl)carbamoyl)benzo[b]thiophen-5-yl)methyl)phosphonic acid] | 300 to 3000 | 100 to 1000 | –
13 | Cc1nnc(C2CN(C(=O)[C@@H]3CC[C@@H]4CCC[C@H](NC(=O)c5cc6cc(C(F)(F)P(=O)(O)O)ccc6s5)C(=O)N43)CCO2)o1 (stereo partly drawn) [Compound 1127, (difluoro(2-(((3S,6S,9aS)-3-(2-(5-methyl-1,3,4-oxadiazol-2-yl)morpholine-4-carbonyl)-5-oxooctahydro-1H-pyrrolo[1,2-a]azepin-6-yl)carbamoyl)benzo[b]thiophen-5-yl)methyl)phosphonic acid] | 300 to 3000 | 100 to 1000 | –
14 | ((S)-(2- (((3S,6S,9aS)-3- ((6S,7R)-7-cyano-6- (pyridin-3-yl)-4- azaspiro[2.4] heptane-4- carbonyl)-5- oxooctahydro-1H- pyrrolo[1,2- a]azepin-6- yl)carbamoyl)benzo [b]thiophen-5- yl)fluoromethyl) phosphonic acid [Compound 838] | – | 1000 to 10000 | ≤ 300
15 | (difluoro(2- (((3S,6S,10aS)-3- ((1R,5S,6S)-6-(5- methyl-1,3,4- oxadiazol-2-yl)-3- azabicyclo[3.1.0] hexane-3- carbonyl)-5- oxodecahydropyrrolo [1,2-a]azocin-6- yl)carbamoyl)benzo [b]thiophen-5- yl)methyl)phosphon ic acid [Compound 804] | – | 100 to 1000 | 300 to 3000
16 | (difluoro(2- (((3S,6S,10aS)-5- oxo-3-((1R,5S,6R)- 6-phenyl-3- azabicyclo[3.1.0] hexane-3- carbonyl)decahydro pyrrolo[1,2- a]azocin-6- yl)carbamoyl)benzo [b]thiophen-5- yl)methyl) phosphonic acid [Compound 805] | – | 100 to 1000 | 3000 to 30000

From patent US20250215029A1 (Recludix Pharma, Inc., priority 2022, published 2025)
